This is an account of results in ChEMBL document CHEMBL3991946, “Linked Myc-max small molecule inhibitors” (2014).

Active and inactive are the calls of the source. The calls are words filed in the database; no cut-off is given here.

Data set [1] deals with Protein max (Homo sapiens) (UniProt P61244). Put plainly: Binding affinity to human hexahistidine-tagged Max p21 bHLH-ZIP domain expressed in Escherichia coli M15 (pRep4) at 10 uM by fluorescence polarization assay. A general note: In fluorescence polarisation assays a small probe gives low polarisation when free and higher when bound to something large.
Data set [2] concerns the target T1, Myc proto-oncogene protein (Homo sapiens, UniProt P01106). Put plainly: Binding affinity to recombinant full-length N-terminal hexahistidine-tagged c-Myc (353 to 437 residues) bHLH-ZIP domain (unknown origin) expressed in Escherichia coli BL21 DE3 (pLysS) assessed as changes in shape or intensity of CD spectrum at 5 uM by circular dichroism assay. (CD spectra are sensitive to the conformation of chiral molecules.)

The nature of data set [3]: Cytotoxicity against c-Myc null rat TGR1 reconstituted with HMGA1b or MT-MC1 assessed as growth inhibition after 4 to 5 days by MTT assay. Format: cell-based. (In general: Formazan colour is commonly taken as a measure of viable cells.)
The nature of data set [4]: Cytotoxicity against non-transformed rat TGR1 assessed as growth inhibition after 4 to 5 days by MTT assay. It is filed as cell-based.
Data set [5] concerns the target T2, c-Myc/Max (Homo sapiens) (UniProt P01106+P61244). Put plainly: Inhibition of recombinant full-length N-terminal hexahistidine-tagged c-Myc (353 to 437 residues) bHLH-ZIP domain (unknown origin) expressed in Escherichia coli BL21 DE3 (pLysS)/human hexahistidine-tagged Max p21 expressed in Escherichia coli M15 (pRep4) assessed as disruption of E-Box DNA binding preincubated for 30 mins with c-Myc followed by Max p21 and E-box element addition measured after 15 mins by electrophoretic mobility shift assay.

Data set [6] has as its target T1, Myc proto-oncogene protein. Put plainly: Displacement of 10058-F4 from recombinant full-length N-terminal hexahistidine-tagged c-Myc (353 to 437 residues) bHLH-ZIP domain (unknown origin) expressed in Escherichia coli BL21 DE3 (pLysS) by fluorescence polarization assay.
Data set [7] has as its target T1, Myc proto-oncogene protein. Put plainly: Binding affinity to recombinant full-length N-terminal hexahistidine-tagged c-Myc (353 to 437 residues) bHLH-ZIP domain (unknown origin) expressed in Escherichia coli BL21 DE3 (pLysS) by fluorescence polarization assay.
For data set [8], the target named is T1, Myc proto-oncogene protein. Put plainly: Binding affinity to recombinant full-length N-terminal hexahistidine-tagged c-Myc (353 to 437 residues) bHLH-ZIP domain (unknown origin) expressed in Escherichia coli BL21 DE3 (pLysS) assessed as changes in COSY spectra in alpha1H region at 500 uM by NMR spectroscopy.
In data set [9] the target is T2, c-Myc/Max (Homo sapiens). Put plainly: Inhibition of recombinant full-length N-terminal hexahistidine-tagged c-Myc (353 to 437 residues) bHLH-ZIP domain (unknown origin) expressed in Escherichia coli BL21 DE3 (pLysS)/human hexahistidine-tagged Max p21 expressed in Escherichia coli M15 (pRep4) assessed as disruption of E-Box DNA binding at 25 to 50 nM preincubated for 30 mins with c-Myc followed by Max p21 and E-box element measured after 15 mins by electrophoretic mobility shift assay.

Data set [10] concerns the target T1, Myc proto-oncogene protein. In words: Binding affinity to recombinant full-length N-terminal hexahistidine-tagged c-Myc (353 to 437 residues) bHLH-ZIP domain (unknown origin) expressed in Escherichia coli BL21 DE3 (pLysS) assessed as changes in alpha1H signals of Tyr 402 residues at 500 uM by NMR spectroscopy.
The test system of another data set is HL-60. Put plainly: Cytotoxicity against human HL60 cells expressing c-Myc assessed as growth inhibition after 4 to 5 days by MTT assay. It is filed as functional, cell-based.
The subject of the next data set is Daudi. In words: Cytotoxicity against human Daudi Burkitt lymphoma cells expressing c-Myc assessed as growth inhibition after 4 to 5 days by MTT assay. It is filed as functional, cell-based.
For data set [11], the target named is T1, Myc proto-oncogene protein. Put plainly: Binding affinity to recombinant full-length N-terminal hexahistidine-tagged c-Myc (353 to 437 residues) bHLH-ZIP domain (unknown origin) expressed in Escherichia coli BL21 DE3 (pLysS) assessed as changes in NOESY spectra at 500 uM by NMR spectroscopy.
The target in data set [12] is T1, Myc proto-oncogene protein. Put plainly: Binding affinity to recombinant full-length N-terminal hexahistidine-tagged c-Myc (353 to 437 residues) bHLH-ZIP domain (unknown origin) expressed in Escherichia coli BL21 DE3 (pLysS) assessed as changes in alpha1H signals of Phe 374 to 375 and Tyr 402 residues at 500 uM by NMR spectroscopy.
The target of data set [13] is T3, c-Myc/c-Max (Homo sapiens) (UniProt P01106+P61244). Put plainly: Inhibition of recombinant c-Myc/Max (unknown origin) expressed in human HL60 cells assessed as disruption of c-Myc/Max association after 16 hrs by co-immunoprecipitation assay. It is filed as cell-based.
Data set [14] has as its target T3, c-Myc/c-Max (Homo sapiens). Put plainly: Inhibition of recombinant c-Myc/Max (unknown origin) expressed in human HL60 cells assessed as disruption of c-Myc/Max association after 6 hrs by co-immunoprecipitation assay. It is filed as cell-based.
The nature of data set [15]: Metabolic stability of the compound.
In data set [16] the target is T1, Myc proto-oncogene protein. Put plainly: Binding affinity to recombinant truncated N-terminal hexahistidine-tagged c-Myc (400 to 439 residues) bHLH-ZIP domain (unknown origin) expressed in Escherichia coli BL21 DE3 (pLysS) by fluorescence polarization assay.
Data set [17] deals with T1, Myc proto-oncogene protein. In words: Binding affinity to recombinant truncated N-terminal hexahistidine-tagged c-Myc (363 to 381 residues) bHLH-ZIP domain (unknown origin) expressed in Escherichia coli BL21 DE3 (pLysS) by fluorescence polarization assay.

Protein max (Homo sapiens), sequence (P61244 whole entry, the tested form may be a part): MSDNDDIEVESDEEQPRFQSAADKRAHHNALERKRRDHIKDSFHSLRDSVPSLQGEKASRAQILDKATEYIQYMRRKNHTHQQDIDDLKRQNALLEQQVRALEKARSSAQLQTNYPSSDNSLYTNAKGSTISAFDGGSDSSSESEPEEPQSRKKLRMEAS
T3 sequence (P01106 whole entry): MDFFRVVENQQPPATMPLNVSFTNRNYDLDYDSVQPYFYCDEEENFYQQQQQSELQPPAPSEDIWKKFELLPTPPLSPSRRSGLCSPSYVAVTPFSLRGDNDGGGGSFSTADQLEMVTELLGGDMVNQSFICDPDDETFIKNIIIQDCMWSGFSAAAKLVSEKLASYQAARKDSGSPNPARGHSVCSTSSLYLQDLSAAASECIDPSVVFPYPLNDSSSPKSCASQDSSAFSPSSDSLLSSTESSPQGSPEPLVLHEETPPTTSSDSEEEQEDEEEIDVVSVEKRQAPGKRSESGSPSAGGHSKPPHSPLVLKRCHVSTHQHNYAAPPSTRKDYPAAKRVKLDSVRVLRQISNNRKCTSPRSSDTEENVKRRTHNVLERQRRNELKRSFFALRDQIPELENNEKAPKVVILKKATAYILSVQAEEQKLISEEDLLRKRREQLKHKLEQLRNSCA
T3 sequence (P61244 2-160 partner limits assumed): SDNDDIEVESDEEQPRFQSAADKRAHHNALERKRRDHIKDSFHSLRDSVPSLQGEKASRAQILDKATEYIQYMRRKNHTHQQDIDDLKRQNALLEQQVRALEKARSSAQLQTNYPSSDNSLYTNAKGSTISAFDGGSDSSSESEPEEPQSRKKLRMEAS
T1 sequence (P01106 whole entry, the tested form may be a part): as the sequence (P01106 whole entry) above

Regarding `O=C1NC(=S)S/C1=C\c1ccc(C(=O)NCCCCCNC(=O)c2cccc(Nc3ccc([N+](=O)[O-])c4nonc34)c2)cc1`, the result in data set [1] and in data set [2] was inactive. Besides, the “growth inhibition (GI)” value in data set [3] and in data set [4] was “Non-Toxic” in each case. In addition, the inhibition result on c-Myc/Max (Homo sapiens) [5] was “Active”.

For orientation: Kd means the constant that tells how readily two partners part at equilibrium. On to `CCc1ccc(/C=C2\SC(=O)N(CCCCCCNC(C)=O)C2=O)cc1`, for which, in data set [6], the result was Active. Further, the Kd in data set [7] was found to be 7000 nM.

Take `CCc1ccc(/C=C2\SC(=S)NC2=O)cc1`: the “growth inhibition (GI)” value in data set [3] and in [4] was “Non-Toxic” each time. Moreover, the inhibition result (in [8]; on c-Myc/Max (Homo sapiens) [9]; in data set [10]) was “Active” each time.

The IC50 is the concentration that inhibits the measured activity by half. For the molecule `O=C(NCCCCCN1C(=O)S/C(=C\c2ccc(F)cc2)C1=O)c1ccc(Nc2ccc([N+](=O)[O-])c3nonc23)cc1`, the values for the IC50 in the data set with HL-60 and in the data set on Daudi were 6000 to 10000 nM and 6000 to 7000 nM, respectively. For the same molecule, the Kd in data set [7] amounted to 3.6 nM.

`CCc1ccc(/C=C2\SC(=O)N(CCCCCNC(=O)CCCCCNC(=O)c3ccc(Nc4ccc([N+](=O)[O-])c5nonc45)cc3)C2=O)cc1`: the Kd in [7] stood at 5 nM.

With `CCc1ccc(/C=C2\SC(=O)N(CCCCCNC(=O)c3ccc(Nc4ccc([N+](=O)[O-])c5nonc45)cc3)C2=O)cc1`, the result in data set [1] and in data set [2] was inactive. Moreover, the “growth inhibition (GI)” value in data set [3] and in data set [4] was “Non-Toxic” in each case. Besides, in data set [11], the result was Active. In addition, the IC50 with HL-60 lay in the range of 7000 to 9000 nM; in the data set with Daudi, 2000 to 4000 nM. Besides, the Kd in data set [7] came to 0.6 nM. For the same molecule, the inhibition result (at c-Myc/Max (Homo sapiens) [5]; in [8]; in [12]) was “Active” in each case.

With `O=[N+]([O-])c1ccc(Nc2ccccc2-c2ccccc2)c2nonc12`, the “growth inhibition (GI)” value in data set [3] and in data set [4] was “Non-Toxic” in each case. Besides, the inhibition result (in data set [8]; on c-Myc/Max (Homo sapiens) [9]) was “Active” each time.

As for `CCc1ccc(/C=C2\SC(=O)N(CCCCNC(=O)c3ccccc3Nc3ccc([N+](=O)[O-])c4nonc34)C2=O)cc1`, the IC50 in the data set with HL-60 was 2000 to 6000 nM; in the data set with Daudi, 2000 to 2500 nM. Also, in [13], the inhibition result is “inactive”. Further, the Kd in data set [7] was found to be 3 nM. The inhibition entry in data set [14] was “Dose-dependent effect”. Moreover, in data set [15], the Stability result is given as “Unstable”.

`O=C1NC(=S)S/C1=C\c1ccc(C(=O)O)cc1`: the Kd in data set [7] was 26000 nM.

Consider `O=C(NCCCCCCN1C(=O)S/C(=C\c2ccc(F)cc2)C1=O)c1ccc(Nc2ccc([N+](=O)[O-])c3nonc23)cc1`, for which the IC50 with HL-60 is 3000 to 4000 nM; with Daudi, 1200 nM. Besides, in data set [13], the inhibition result is “inactive”. Further, the Kd in data set [7] turned out to be 1.7 nM. In addition, the inhibition result in data set [14] is “Dose-dependent effect”. Moreover, the Stability entry in data set [15] is given as “Unstable”.

As to `CCc1ccc(/C=C2\SC(=O)N(CCCCCNC(=O)CNC(=O)c3ccc(Nc4ccc([N+](=O)[O-])c5nonc45)cc3)C2=O)cc1`, the “growth inhibition (GI)” value in data set [3] and in [4] was “Non-Toxic” in each case. Moreover, the IC50 in the data set on HL-60 is 2000 to 4000 nM; in the data set on Daudi, 4000 to 6000 nM. For the same molecule, the Kd in [7] is 3.6 nM.

As for `CCc1ccc(/C=C2\SC(=O)N(CCCCNC(=O)c3ccc(Nc4ccc([N+](=O)[O-])c5nonc45)cc3)C2=O)cc1`, the “growth inhibition (GI)” value in data set [3] and in [4] was “Non-Toxic” each time. Besides, the Stability result in data set [15] is on record as “Unstable”.

For the molecule `CC(=O)NCCCCCOC(=O)c1ccc(Nc2ccc([N+](=O)[O-])c3nonc23)cc1`, in data set [7], the Kd amounted to 1700 nM.

In the case of `O=C(CCCCCNC(=O)c1ccc(Nc2ccc([N+](=O)[O-])c3nonc23)cc1)NCCCCCNC(=O)c1ccc(/C=C2\SC(=S)NC2=O)cc1`, in data set [7], the dissociation constant (Kd) is 55 nM.

As to `O=C(NCCCCCCN1C(=O)S/C(=C\c2ccc(F)cc2)C1=O)c1ccccc1Nc1ccc([N+](=O)[O-])c2nonc12`, the values for the half-maximal inhibitory concentration (IC50) in the data set on HL-60 and in the data set with Daudi were 3000 to 3500 nM and 6000 to 8000 nM, respectively. In addition, in data set [7], the Kd was 4.6 nM.

Regarding `O=C(CNC(=O)c1ccc(Nc2ccc([N+](=O)[O-])c3nonc23)cc1)NCCCCCNC(=O)c1ccc(/C=C2\SC(=S)NC2=O)cc1`, the “growth inhibition (GI)” value in data set [3] and in data set [4] was “Non-Toxic” throughout. For the same molecule, the IC50 with HL-60 lay in the range of 7000 to 13000 nM; with Daudi, 7000 to 11000 nM. The Kd in data set [7] was 320 nM.

Turning to `CCc1ccc(/C=C2\SC(=O)N(CCCCCNC(=O)c3cccc(Nc4ccc([N+](=O)[O-])c5nonc45)c3)C2=O)cc1`, the result in [1] and in data set [2] was inactive. Moreover, the “growth inhibition (GI)” value in data set [3] and in data set [4] was “Non-Toxic” in each case. In addition, the results for the IC50 in the data set on HL-60 and in the data set with Daudi were greater than 30000 nM and greater than 10000 nM, respectively. Moreover, the Kd in data set [7] was determined as 110 nM. Further, the inhibition entry on c-Myc/Max (Homo sapiens) [5] was “Active”.

`O=C(NCCCCCN1C(=O)S/C(=C\c2ccc(F)cc2)C1=O)c1ccccc1Nc1ccc([N+](=O)[O-])c2nonc12`: the IC50 with HL-60 was 1500 to 1700 nM; in the data set with Daudi, 1000 to 1200 nM. Besides, the inhibition result in [13] is “inactive”. Moreover, the Kd in data set [7] came out at 11 nM. For the same molecule, the inhibition entry in data set [14] is “Dose-dependent effect”. Further, the Stability entry in [15] was “Unstable”.

`O=C1NC(=S)S/C1=C/c1ccc(C(=O)NCCCCCNC(=O)c2ccc(Nc3ccc([N+](=O)[O-])c4nonc34)cc2)cc1`: the outcome in [1] and in [2] was inactive. Further, the “growth inhibition (GI)” value in data set [3] and in [4] was “Non-Toxic” each time. The inhibition entry at c-Myc/Max (Homo sapiens) [5] was “Active”.

`O=C1NC(=S)S/C1=C\c1ccc(C(=O)NCCCCCNC(=O)c2ccccc2Nc2ccc([N+](=O)[O-])c3nonc23)cc1`: the result in data set [1] and in data set [2] was inactive. The “growth inhibition (GI)” value in data set [3] and in data set [4] was “Non-Toxic” each time. For the same molecule, the IC50 in the data set with HL-60 was greater than 10000 nM. Moreover, the results for the Kd in [7], in data set [16] and in data set [17] were 24 nM, 122 nM and 10 nM, respectively. For the same molecule, the inhibition result on c-Myc/Max (Homo sapiens) [5] was “Active”.
